Assay results reported in Sander's compilation of Henry's law constants (doi:10.1021/je0000266).

Test: Henry solubility constant Hcp at 298.15 K (mol/(m3 Pa))
Details: reference: Bamford et al. (2000)

Going from Clc1cc(Cl)c(-c2c(Cl)c(Cl)cc(Cl)c2Cl)c(Cl)c1Cl [2,2',3,3',4,5',6,6'-octachlorobiphenyl] to Clc1cc(Cl)c(-c2c(Cl)c(Cl)cc(Cl)c2Cl)c(Cl)c1 [2,2',3,4',5,6,6'-heptachlorobiphenyl], the “Henry solubility constant Hcp” value falls from 0.01 to 0.0088.

First: Clc1cc(Cl)c(-c2c(Cl)c(Cl)cc(Cl)c2Cl)cc1Cl [2,2',3,4',5,5',6-heptachlorobiphenyl]
Second: Clc1cc(Cl)c(-c2cc(Cl)c(Cl)cc2Cl)cc1Cl [2,2',4,4',5,5'-hexachlorobiphenyl]
The “Henry solubility constant Hcp” value of the first is lower: 0.016 for the first, 0.019 for the second.

First: Clc1cc(Cl)c(-c2ccc(Cl)c(Cl)c2Cl)cc1Cl [2,2',3,4,4',5'-hexachlorobiphenyl]
Second: Clc1ccc(Cl)c(-c2cc(Cl)c(Cl)cc2Cl)c1 [2,2',4,5,5'-pentachlorobiphenyl]
The “Henry solubility constant Hcp” value of the first is lower: 0.022 for the first, 0.024 for the second.

Compared with Clc1ccc(Cl)c(-c2cccc(Cl)c2Cl)c1 [2,2',3,5'-tetrachlorobiphenyl], Clc1ccc(Cl)c(-c2ccccc2Cl)c1 [2,2',5-trichlorobiphenyl] is higher in “Henry solubility constant Hcp” value: 0.036 for the first, 0.039 for the second.

Compared with Clc1cc(Cl)c(-c2cc(Cl)c(Cl)cc2Cl)c(Cl)c1 [2,2',4,4',5,6'-hexachlorobiphenyl], Clc1ccc(-c2cc(Cl)c(Cl)cc2Cl)cc1Cl [2,3',4,4',5-pentachlorobiphenyl] is higher in “Henry solubility constant Hcp” value: 0.013 for the first, 0.028 for the second.

First: Clc1cc(Cl)c(-c2ccccc2Cl)c(Cl)c1 [2,2',4,6-tetrachlorobiphenyl]
Second: Clc1ccc(-c2ccc(Cl)c(Cl)c2)c(Cl)c1 [2,3',4,4'-tetrachlorobiphenyl]
The “Henry solubility constant Hcp” value of the first is lower: 0.016 for the first, 0.027 for the second.

First: Clc1ccc(Cl)c(-c2cc(Cl)ccc2Cl)c1 [2,2',5,5'-tetrachlorobiphenyl]
Second: Clc1ccc(-c2ccc(Cl)c(Cl)c2)cc1Cl [3,3',4,4'-tetrachlorobiphenyl]
The “Henry solubility constant Hcp” value of the first is lower: 0.032 for the first, 0.062 for the second.

Going from Clc1ccc(-c2ccc(Cl)c(Cl)c2Cl)cc1Cl [2,3,3',4,4'-pentachlorobiphenyl] to Clc1ccc(-c2cc(Cl)c(Cl)c(Cl)c2)cc1Cl [3,3',4,4',5-pentachlorobiphenyl], the “Henry solubility constant Hcp” value rises from 0.03 to 0.048.

Compared with Clc1ccc(-c2ccccc2Cl)cc1 [2,4'-dichlorobiphenyl], Clc1ccccc1-c1ccccc1 [2-chlorobiphenyl] is higher in “Henry solubility constant Hcp” value: 0.04 for the first, 0.049 for the second.
